From BindingDB's records for doi:10.1016/s0960-894x(99)00064-5 (Institut De Chimie Organique De L'Universit&#233, 1999)
pIC50, pKi: −log10 of the molar value.

Experiments:
[1] = target: Beta-galactosidase (Canavalia ensiformis); assay: Inhibition constant against beta-galactosidase enzyme of jack bean was reported
[2] = target: Beta-galactosidase (Canavalia ensiformis); assay: as above; remark: listed apart in the source

pKi [1]: 5.12 | pIC50 [2]: 5.03
Structure (SMILES): CC(=O)N[C@H]1C(O)O[C@H](C(O)CO)[C@@H]1C[C@H]1O[C@H](CO)[C@@H](O)[C@H](O)[C@@H]1O (some centres not stated) [N-[2,5-Dihydroxy-6-hydroxymethyl-4-(3,4,5-trihydroxy-6-hydroxymethyl-tetrahydro-pyran-2-ylmethyl)-tetrahydro-pyran-3-yl]-acetamide and N-[5-(1,2-Dihydroxy-ethyl)-2-hydroxy-4-(3,4,5-trihydroxy-6-hydroxymethyl-tetrahydro-pyran-2-ylmethyl)-tetrahydro-furan-3-yl]-acetamide]
